{"source": "patent US9988405B2", "about": "“O-phenyl chalcone compounds and uses thereof” (Neopanora Bio-technology (Zhuhai) Ltd., priority 2014, dated 2018)", "key": {"[1]": {"test_system": "doxorubicin resistant breast cancer cell MCF-7/DOX", "assay": "SRB anti-proliferative assay, drug-resistant MCF-7/DOX", "format": "cell-based", "details": "Homo sapiens, MCF7-DOX; doxorubicin resistant MCF-7/DOX, SRB; read-out: Anti-proliferative IC50, MCF-7/DOX", "protocol": "(§1) The present example evaluated the anti-tumor activity of the molecules provided by the present invention. The present example mainly used a method with SRB (sulforhodamine B) dying, in which proteins in the cell were stained with SRB dye to determine protein content in the cell so as to characterize cell growth density. Firstly, the test compound was formulated into a stock solution (10 mM), which was stored at 4° C. in a refrigerator. Prior to beginning the assay, the stock solution was diluted with DMSO into a series of different concentrations. The required concentrations were obtained by diluting with complete growth medium. Well growing cells were seeded in a 96-well plate (5000 cells/well, 100 uL) and cultured in an incubator at 37° C., 5% CO2, and 90% RH. 24 h later, the prepared compound solution (100 μL) was slowly added to cell solution in the 96-well plate, and the well with DMSO (final concentration 0.5%) instead of the drug was used as a drug free control. The plate was incubated for 48 h. In addition, a day 0 plate that was drug free was directly detected after cell seeded in the plate for 24 h. The 96-well plate was taken out and added with trichloroacetic acid (50 μL, final concentration 10%). The plate was incubated at 4° C. for 1 h to fix the cells.\n(§2) The plate was washed with ultrapure water and air-dried. The plate was then stained with SRB dye (0.4% in 1% acetic acid, 100 μL) for 30 min at room temperature. The plate was then washed with 1% acetic acid and then air-dried. A Tris base solution (100 μL, 10 mM, pH10.4) was added, after which the plate was gently shaken for 1 h on an orbital shaker to ensure that the dyes were completed dissolved. The optical density (OD) was recorded on a TECAN Infinite M200 Pro multimode reader at 515 nm. The cell growth (% of control)=(OD value of wells added with drug−mean OD value of Day 0 plate)/(OD value of DMSO drug-free control well−mean OD value of Day 0 plate)*100.\n(§3) We also evaluated the anti-proliferation activities of selected compounds against drug-resistant cancer cell lines."}, "[2]": {"test_system": "human colon cancer cells SW480", "assay": "SRB anti-proliferative assay, SW480", "format": "cell-based", "details": "SW480, SRB, 48 h, read-out: Anti-proliferative IC50, SW480", "protocol": "as §1, §2"}, "[3]": {"test_system": "human colon cancer cells HCT8", "assay": "SRB anti-proliferative assay, HCT-8", "format": "cell-based", "details": "HCT-8, SRB, 48 h, read-out: Anti-proliferative IC50, HCT-8", "protocol": "as §1, §2"}, "[4]": {"test_system": "Paclitaxel-resistant human ovarian carcinoma cell A2780/TAX", "assay": "SRB anti-proliferative assay, drug-resistant A2780/TAX", "format": "cell-based", "details": "paclitaxel-resistant A2780/TAX, SRB, read-out: Anti-proliferative IC50, A2780/TAX", "protocol": "as §1, §2, §3"}, "[5]": {"test_system": "cis-platinum resistant human lung cancer cell A549/CDDP", "assay": "SRB anti-proliferative assay, drug-resistant A549/CDDP", "format": "cell-based", "details": "cis-platinum resistant A549/CDDP, SRB, read-out: Anti-proliferative IC50, A549/CDDP", "protocol": "as §1, §2, §3"}, "A549 cells": {"test_system": "A549 cells", "assay": "Microtubule re-assembly and mitosis on cellular level (confocal immunofluorescence)", "format": "cell-based, human", "details": "31 nM", "protocol": "The method was primarily described here below.\nA549 cells were seeded in a confocal culture dish at 8×10^4 cells/dish, grown for 24 h and divided into two groups. DMSO (0.5%) was added to one group followed by culture for 24 h. Compound 3 (31 nM) was added to the other group followed by culture for 24 h. Then cells of two dishes were fixed directly (37° C.). The remaining cells were placed in ice for 1 h, then at 37° C. for 0, 5, 10, and 15 min Cells were then fixed with paraformaldehyde (4%) for 15 min. Then cells were subject to permeabilization buffer for 15 min Primary β-tubulin mouse antibody was added and incubated at room temperature for 1 h.\n3 on microtubules, microtubule re-assembly and mitosis: a, c-f, was the solvent control group (0.5% DMSO added), b, g-j was test group (31 nM compound no. 3 added), Scale bars: […]."}, "[6]": {"test_system": "human ovary cancer cells A2780", "assay": "SRB anti-proliferative assay, A2780", "format": "cell-based", "details": "A2780, SRB, 48 h, read-out: Anti-proliferative IC50, A2780", "protocol": "as §1, §2"}, "[7]": {"test_system": "human nasopharyngeal carcinoma cells CNE2", "assay": "SRB anti-proliferative assay, CNE2", "format": "cell-based", "details": "CNE-2, CNE2, SRB, 48 h, read-out: Anti-proliferative IC50, CNE2", "protocol": "as §1, §2"}, "[8]": {"test_system": "incristine resistant human ileocecum carcinoma cell HCT-8/VCT", "assay": "SRB anti-proliferative assay, drug-resistant HCT-8/VCT", "format": "cell-based", "details": "HCT8/VCT, vincristine-resistant HCT-8/VCT, SRB, read-out: Anti-proliferative IC50, HCT-8/VCT", "protocol": "as §1, §2, §3"}, "[9]": {"test_system": "human breast cancer cells MCF7", "assay": "SRB anti-proliferative assay, MCF-7", "format": "cell-based", "details": "MCF7, MCF-7, SRB, 48 h, read-out: Anti-proliferative IC50, MCF-7", "protocol": "as §1, §2"}, "tubulin": {"test_system": "tubulin", "assay": "Microtubule polymerization inhibition assay (tubulin polymerization assay kit)", "format": "biochemical", "details": "2 mg/ml tubulin, 37° C., fluorescence, 1 hour; read-out: IC50 on inhibition of microtubules polymerization", "protocol": "Tubulin polymerization assay kit was used in the example, and the accompanying experimental protocol was followed. The specific method was described below.\nPrior to the assay, the compounds were diluted with DMSO into a series of different concentrations and then diluted with sterile ultra-pure water into 10× solution of compounds. A 96-well plate was pre-warmed to 37° C. for 30 min in a multi-functional microplate reader. Reaction solution (2 mg/ml tubulin, 80 mM PIPES pH6.9, 2.0 mM MgCl2, 0.5 mM EGTA, 1.0 mM GTP, 15% glycerin) is prepared by materials needed in microtubule polymerization (tubulin buffer 85 uL, Glycerin buffer 150 μL, general buffer 205 μL, GTP ([…]) 4.4 μL). 5 μL solution of compound were added into the 96-well plate and incubated in a microplate reader for 1 min. DMSO was employed as a control. The plate was taken out and then reaction solution was immediately added ([…]). The plate was then immediately placed back into the reader and vibrated for 5 seconds before recording. The microplate reader was set at 37° C., and monitored in a kinetic model with emission wavelength at 450 nm and excitation wavelength at 360 nm. The plate was mixed and measured every minute and determined for 1 hour. A curve of fluorescence intensity v.s. time was obtained and the inhibition rate was calculated by the following formula. GraphPad Prism software was used to determine the IC50. Inhibition rate=[1−(average value of plateau of test curve−value of time 0)/(average value of plateau of DMSO curve−value of time 0)]*100."}, "[10]": {"test_system": "human liver cancer cell HepG2", "assay": "SRB anti-proliferative assay, HepG2", "format": "cell-based", "details": "HepG2, SRB, 48 h, read-out: Anti-proliferative IC50, HepG2", "protocol": "as §1, §2"}, "[11]": {"test_system": "human lung cancer cells A549", "assay": "SRB anti-proliferative assay, A549", "format": "cell-based", "details": "A549, SRB, 48 h, read-out: Anti-proliferative IC50, A549", "protocol": "as §1, §2"}}, "data": [{"compound": "COc1ccc(/C=C/C(=O)c2ccccc2-c2cccc(F)c2)cc1O", "note": "[compound 3, (E)-1-(3′-Fluoro[1,1′-biphenyl]-2-yl)-3-(3-hydroxy-4-methoxyphenyl)prop-2-en-1-one]", "values": [{"measurement": "IC50", "setting": "[1]", "value": 2, "unit": "nM"}, {"measurement": "IC50", "setting": "[2]", "value": 12, "unit": "nM"}, {"measurement": "IC50", "setting": "[3]", "value": 16, "unit": "nM"}, {"measurement": "IC50", "setting": "[4]", "value": 190, "unit": "nM"}, {"measurement": "IC50", "setting": "[5]", "value": 121, "unit": "nM"}, {"measurement": "Abnormal events in mitotic phase", "setting": "A549 cells", "value": "multipolarization of spindle and multinucleation"}, {"measurement": "Effect on filiform structure of microtubule", "setting": "A549 cells; 24 h", "value": "microtubule depolymerized to form discreet tublin"}, {"measurement": "Automatic re-assembly (polymerization) of tubulin into microtubule after ice incubation", "setting": "A549 cells; ice 1 h then 37° C. 0-15 min", "value": "obviously inhibited"}, {"measurement": "IC50", "setting": "[6]", "value": 13, "unit": "nM"}, {"measurement": "IC50", "setting": "[7]", "value": 17, "unit": "nM"}, {"measurement": "IC50", "setting": "[8]", "value": 57, "unit": "nM"}, {"measurement": "IC50", "setting": "[9]", "value": 65, "unit": "nM"}, {"measurement": "IC50", "setting": "tubulin", "value": 487, "unit": "nM"}, {"measurement": "IC50", "setting": "[10]", "value": 14, "unit": "nM"}, {"measurement": "IC50", "setting": "[11]", "value": 11, "unit": "nM"}]}]}
